Assay results reported in patent US12065430B2, “Indazole compound or salt thereof” (TAIHO PHARMACEUTICAL CO., LTD., priority 2018, dated 2024).

target: G12C K-Ras4B (1-169) (Homo sapiens (Human), UniProt P01116, G12C); assay: Test of compounds on whether to bind to KRASG12C (LC-MS compound binding rate); conditions: final compound concentration of 2 μM, 1 μM protein, 25° C. for 2 hours
Summary of the method: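 K-Ras4B (1-169) WT and G12C (1 μM each, mixed) in 1×TBS, 0.1 mM TCEP incubated with compound (final 2 μM) 2 h at 25° C; quenched with 0.2% formic acid. Intact-protein LC-MS (ESI+, deconvoluted); binding rate = adduct signal/(adduct + unbound signal), giving selectivity over WT.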

G12C K-Ras4B (1-169), sequence (P01116 other isoform, or with tags, fused parts or gaps G12C): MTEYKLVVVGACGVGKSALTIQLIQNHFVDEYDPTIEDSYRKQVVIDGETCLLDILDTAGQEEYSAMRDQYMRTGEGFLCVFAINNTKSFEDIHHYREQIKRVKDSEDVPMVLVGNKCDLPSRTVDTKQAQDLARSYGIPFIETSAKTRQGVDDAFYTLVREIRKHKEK

SMILES | binding rate for G12C K-Ras4B (1-169)
C=CC(=O)N1C[C@@H](CC#N)[C@@H](NC(=O)c2c(C)nc(CNc3n[nH]c4cc(Cl)c(C(C)(C)C)cc34)n2C)C1 [Example 65, N-((3R,4R)-1-acryloyl-4-(cyanomethyl)pyrrolidin-3-yl)-2-(((5-(tert-butyl)-6-chloro-1H-indazol-3-yl)amino)methyl)-1,4-dimethyl-1H-imidazole-5-carboxamide] | B (a binding rate of 60% or more and less than 80% is rated “B,”)
C=CC(=O)N1C[C@@H](CF)[C@@H](NC(=O)c2c(C)nc(CNc3n[nH]c4cc(Cl)c(C(C)(C)C)cc34)n2C)C1 [Example 66, N-((3R,4R)-1-acryloyl-4-(fluoromethyl)pyrrolidin-3-yl)-2-(((5-(tert-butyl)-6-chloro-1H-indazol-3-yl)amino)methyl)-1,4-dimethyl-1H-imidazole-5-carboxamide] | A (a binding rate of 80% or more is rated “A,”)
C=CC(=O)N1C[C@@H](COC)[C@@H](NC(=O)c2c(C)nc(CNc3n[nH]c4cc(Cl)c(C(C)(C)C)cc34)n2C)C1 [Example 67, N-((3R,4R)-1-acryloyl-4-(methoxymethyl)pyrrolidin-3-yl)-2-(((5-(tert-butyl)-6-chloro-1H-indazol-3-yl)amino)methyl)-1,4-dimethyl-1H-imidazole-5-carboxamide] | A (a binding rate of 80% or more is rated “A,”)
C=CC(=O)N1C[C@@H](CN(C)C)[C@@H](NC(=O)c2c(C)nc(CNc3n[nH]c4cc(Cl)c(C(C)(C)C)cc34)n2C)C1 [Example 68, N-((3R,4R)-1-acryloyl-4-((dimethylamino)methyl)pyrrolidin-3-yl)-2-(((5-(tert-butyl)-6-chloro-1H-indazol-3-yl)amino)methyl)-1,4-dimethyl-1H-imidazole-5-carboxamide] | C (a binding rate of 40% or more and less than 60% is rated “C,”)
C=CC(=O)N1C[C@@H](CC)[C@@H](NC(=O)c2c(C)nc(CNc3n[nH]c4cc(Cl)c(C(C)(C)C)cc34)n2C)C1 [Example 69, N-((3R,4R)-1-acryloyl-4-ethylpyrrolidin-3-yl)-2-(((5-(tert-butyl)-6-chloro-1H-indazol-3-yl)amino)methyl)-1,4-dimethyl-1H-imidazole-5-carboxamide] | E (a binding rate of less than 20% is rated “E.”)
C=CC(=O)N1C[C@H](NC(=O)c2c(C(F)F)nc(CNc3n[nH]c4cc(Cl)c(C(C)(C)C)cc34)n2C)[C@@H](F)C1 [Example 70, N-((3S,4S)-1-acryloyl-4-fluoropyrrolidin-3-yl)-2-(((5-(tert-butyl)-6-chloro-1H-indazol-3-yl)amino)methyl)-4-(difluoromethyl)-1-methyl-1H-imidazole-5-carboxamide] | A (a binding rate of 80% or more is rated “A,”)
C=CC(=O)N1C[C@@H](C)[C@@H](NC(=O)c2c(C(F)F)nc(CNc3n[nH]c4cc(Cl)c(C(C)(C)C)cc34)n2C)C1 [Example 71, N-((3R,4R)-1-acryloyl-4-methylpyrrolidin-3-yl)-2-(((5-(tert-butyl)-6-chloro-1H-indazol-3-yl)amino)methyl)-4-(difluoromethyl)-1-methyl-1H-imidazole-5-carboxamide] | C (a binding rate of 40% or more and less than 60% is rated “C,”)
C=CC(=O)N1CC[C@@H](NC(=O)c2c(F)nc(CNc3n[nH]c4cc(Cl)c(C(C)(C)C)cc34)n2C)C1 [Example 72, (R)—N-(1-acryloylpyrrolidin-3-yl)-2-(((5-(tert-butyl)-6-chloro-1H-indazol-3-yl)amino)methyl)-4-fluoro-1-methyl-1H-imidazole-5-carboxamide] | B (a binding rate of 60% or more and less than 80% is rated “B,”)
C=CC(=O)N1CC[C@@H](NC(=O)c2c(Cl)nc(CNc3n[nH]c4cc(Cl)c(C(C)(C)C)cc34)n2C)C1 [Example 73, (R)—N-(1-acryloylpyrrolidin-3-yl)-2-(((5-(tert-butyl)-6-chloro-1H-indazol-3-yl)amino)methyl)-4-chloro-1-methyl-1H-imidazole-5-carboxamide] | B (a binding rate of 60% or more and less than 80% is rated “B,”)
C=CC(=O)N1C[C@@H](C)[C@@H](NC(=O)c2c(F)nc(CNc3n[nH]c4cc(Cl)c(C(C)(C)C)cc34)n2C)C1 [Example 74, N-((3R,4R)-1-acryloyl-4-methylpyrrolidin-3-yl)-2-(((5-(tert-butyl)-6-chloro-1H-indazol-3-yl)amino)methyl)-4-fluoro-1-methyl-1H-imidazole-5-carboxamide] | A (a binding rate of 80% or more is rated “A,”)
C=CC(=O)N1CC[C@@H](N(C)C(=O)c2cnc(CNc3n[nH]c4cc(Cl)c(C(C)(C)C)cc34)n2C)C1 [Example 77, (R)—N-(1-acryloylpyrrolidin-3-yl)-2-(((5-(tert-butyl)-6-chloro-1H-indazol-3-yl)amino)methyl)-N,1-dimethyl-1H-imidazole-5-carboxamide] | C (a binding rate of 40% or more and less than 60% is rated “C,”)
Cc1nc(CNc2n[nH]c3cc(Cl)c(C(C)(C)C)cc23)n(C(C)C)c1C(=O)NC1CN(C(=O)/C=C/CN2CCCCC2)C1 [Example 79, (E)-2-(((5-(tert-butyl)-6-chloro-1H-indazol-3-yl)amino)methyl)-1-isopropyl-4-methyl-N-(1-(4-(piperidin-1-yl)but-2-enoyl)azetidin-3-yl)-1H-imidazole-5-carboxamide] | E (a binding rate of less than 20% is rated “E.”)
Cc1nc(CNc2n[nH]c3cc(Cl)c(C(C)(C)C)cc23)n(C)c1C(=O)NC1CN(C(=O)/C=C/CN(C)C)C1 [Example 80, (E)-2-(((5-(tert-butyl)-6-chloro-1H-indazol-3-yl)amino)methyl)-N-(1-(4-(dimethylamino)but-2-enoyl)azetidin-3-yl)-1,4-dimethyl-1H-imidazole-5-carboxamide] | C (a binding rate of 40% or more and less than 60% is rated “C,”)
C/C=C/C(=O)N1CC(NC(=O)c2c(C)nc(CNc3n[nH]c4cc(Cl)c(C(C)(C)C)cc34)n2C(C)C)C1 [Example 81, (E)-N-(1-(but-2-enoyl)azetidin-3-yl)-2-(((5-(tert-butyl)-6-chloro-1H-indazol-3-yl)amino)methyl)-1-isopropyl-4-methyl-1H-imidazole-5-carboxamide] | E (a binding rate of less than 20% is rated “E.”)
CC#CC(=O)N1CC(NC(=O)c2c(C)nc(CNc3n[nH]c4cc(Cl)c(C(C)(C)C)cc34)n2C(C)C)C1 [Example 82, N-(1-(buty-2-noyl)azetidin-3-yl)-2-(((5-(tert-butyl)-6-chloro-1H-indazol-3-yl)amino)methyl)-1-isopropyl-4-methyl-1H-imidazole-5-carboxamide] | D (a binding rate of 20% or more and less than 40% is rated “D,”)
Cc1nc(CNc2n[nH]c3cc(Cl)c(C(C)(C)C)cc23)n(C(C)C)c1C(=O)NC1CN(C(=O)/C=C\Cl)C1 [Example 83, (Z)-2-(((5-(tert-butyl)-6-chloro-1H-indazol-3-yl)amino)methyl)-N-(1-(3-chloroacryloyl)azetidin-3-yl)-1-isopropyl-4-methyl-1H-imidazole-5-carboxamide] | D (a binding rate of 20% or more and less than 40% is rated “D,”)
CC(C)n1c(CNc2n[nH]c3cc(Cl)c(C(C)(C)C)cc23)nc(C(F)F)c1C(=O)NC1CN(C(=O)/C=C/CN(C)C)C1 [Example 84, (E)-2-(((5-(tert-butyl)-6-chloro-1H-indazol-3-yl)amino)methyl)-4-(difluoromethyl)-N-(1-(4-(dimethylamino)but-2-enoyl)azetidin-3-yl)-1-isopropyl-1H-imidazole-5-carboxamide] | C (a binding rate of 40% or more and less than 60% is rated “C,”)
COC/C=C/C(=O)N1CC(NC(=O)c2c(C)nc(CNc3n[nH]c4cc(Cl)c(C(C)(C)C)cc34)n2C(C)C)C1 [Example 85, (E)-2-(((5-(tert-butyl)-6-chloro-1H-indazol-3-yl)amino)methyl)-1-isopropyl-N-(1-(4-methoxybut-2-enoyl)azetidin-3-yl)-4-methyl-1H-imidazole-5-carboxamide] | C (a binding rate of 40% or more and less than 60% is rated “C,”)
C=CS(=O)(=O)N1CC(NC(=O)c2c(C)nc(CNc3n[nH]c4cc(Cl)c(C(C)(C)C)cc34)n2C(C)C)C1 [Example 86, 2-(((5-(tert-butyl)-6-chloro-1H-indazol-3-yl)amino)methyl)-1-isopropyl-4-methyl-N-(1-(vinylsulfonyl)azetidin-3-yl)-1H-imidazole-5-carboxamide] | A (a binding rate of 80% or more is rated “A,”)
C=CC(=O)N1CC(NC(=O)c2c(Cl)nc(CNc3n[nH]c4cc(Cl)c(C(C)(C)C)cc34)n2CCCC)C1 [Example 87, N-(1-acryloylazetidin-3-yl)-1-butyl-2-(((5-(tert-butyl)-6-chloro-1H-indazol-3-yl)amino)methyl)-4-chloro-1H-imidazole-5-carboxamide] | A (a binding rate of 80% or more is rated “A,”)
C=CC(=O)N1CC(NC(=O)c2cnc(CNc3n[nH]c4cc(Cl)c(C(C)(C)C)cc34)n2Cc2cc(OC)cc(OC)c2)C1 [Example 88, N-(1-acryloylazetidin-3-yl)-2-(((5-(tert-butyl)-6-chloro-1H-indazol-3-yl)amino)methyl)-1-(3,5-dimethoxybenzyl)-1H-imidazole-5-carboxamide] | B (a binding rate of 60% or more and less than 80% is rated “B,”)
C=CC(=O)N1CC(NC(=O)c2c(Cl)nc(CNc3n[nH]c4cc(Cl)c(C(C)(C)C)cc34)n2CC(C)C)C1 [Example 89, N-(1-acryloylazetidin-3-yl)-2-(((5-(tert-butyl)-6-chloro-1H-indazol-3-yl)amino)methyl)-4-chloro-1-isobutyl-1H-imidazole-5-carboxamide] | A (a binding rate of 80% or more is rated “A,”)
